# Experimental data reported in patent publication US12534460B2, “LSD salt crystal forms” (Mind Medicine, Inc., priority 2021, dated 2026).
# Where two headings read alike, the source gives them in different places.
# Tests used:
# [1] = Accelerated storage at 40° C./75% RH for 14 days; type: physicochemical; conditions: for XRPD of Output / Nature of solid: 40° C./75% RH, 14 days, unsealed vials; for XRPD of Output: physical stability; for Nature of solid: visual observation for deliquescence; for change in form after stress: after stress at 40° C./75 RH
# Text: Samples were visually observed for signs of deliquescence and analysed by XRPD post stressing for physical stability and HPLC for chemical stability.
# [2] = Heat cycled maturation and solubility assessment (liquors analysed by HPLC versus a standard)
# [3] = Compression of amorphous solid, analysis by XRPD; type: physicochemical; conditions: force of 10^5N for approximately 24 hours
# Experimental: Experimental: D-LSD amorphous oxalate (Lot: DC1134, ˜50 mg) was pressed with a force of 10^5N for approximately 24 hours. The solids were then removed from the press for analysis by XRPD.
compound,measurement,setting,value
CCN(CC)C(=O)C1C=C2c3cccc4[nH]cc(c34)CC2N(C)C1.O=C(O)C(=O)O [D-LSD oxalate Pattern B],XRPD of Output,[1],oxalate Pattern B
same,Nature of solid,[1],solid
same,change in form after stress,[1],did not show a change in form
"Br.CCN(CC)C(=O)[C@@H]1C=C2c3cccc4[nH]cc(c34)C[C@H]2N(C)C1 [D-LSD amorphous HBr, D-LSD hydrobromide amorphous salt]",solubility,"[2]; 1,4-dioxane, at 40° C., HBr salt",> 100000 µg/mL
same,solubility,"[2]; EtOH, at 25° C., HBr salt",> 100000 µg/mL
same,solubility,"[2]; IPA/water (95:5 v/v), at 40° C., HBr salt",> 100000 µg/mL
same,solubility,"[2]; MEK, at 25° C., HBr salt",> 100000 µg/mL
same,solubility,"[2]; MeOH, at 25° C., HBr salt",> 200000 µg/mL
same,solubility,"[2]; THF/water (95:5 v/v), at 25° C., HBr salt",> 200000 µg/mL
same,solubility,"[2]; iPrOAc/water (98:2 v/v), at 40° C., HBr salt",> 100000 µg/mL
same,solubility,"[2]; nitromethane, at 25° C., HBr salt",> 100000 µg/mL
same,Solubility 25° C.,"[2]; solvent EtOAc, input D-LSD amorphous HBr",2630 µg/mL
same,Solubility 25° C.,"[2]; solvent IPAC*, input D-LSD amorphous HBr",4190 µg/mL
same,Solubility 25° C.,"[2]; solvent MIBK, input D-LSD amorphous HBr",16400 µg/mL
same,Solubility 25° C.,"[2]; solvent MeCN, input D-LSD amorphous HBr",8680 µg/mL
same,Solubility 25° C.,"[2]; solvent TBME*, input D-LSD amorphous HBr",9840 µg/mL
same,Solubility 25° C.,"[2]; solvent chlorobenzene, input D-LSD amorphous HBr",3120 µg/mL
same,Solubility 25° C.,"[2]; solvent heptane, input D-LSD amorphous HBr",50 µg/mL
same,Solubility 25° C.,"[2]; solvent toluene, input D-LSD amorphous HBr",3910 µg/mL
same,Solubility 25° C.,"[2]; solvent water, input D-LSD amorphous HBr",25100 µg/mL
"CCN(CC)C(=O)[C@@H]1C=C2c3cccc4[nH]cc(c34)C[C@H]2N(C)C1.O=C(O)C(O)C(O)C(=O)O [D-LSD D-tartrate Pattern A, D-LSD D-tartaric acid salt]",reversibility of water uptake as relative humidity decreases,"DVS profile, only minor hysteresis",reversible
same,weight lost during the initial desorption cycle,[…],0.6 wt %
same,water absorbed during the subsequent sorption cycle,at 90% RH,1%
same,water absorbed during the subsequent sorption cycle,up to 80% RH,0.65%
"CCN(CC)C(=O)[C@@H]1C=C2c3cccc4[nH]cc(c34)C[C@H]2N(C)C1.O=C(O)C(=O)O [Amorphous D-LSD oxalate, amorphous D-LSD oxalate salt]",form by XRPD after compression,[3],remained as an amorphous solid
same,solubility,"[2]; EtOH, at 25° C., oxalate salt",> 200000 µg/mL
same,solubility,"[2]; MeOH, at 25° C., oxalate salt",> 200000 µg/mL
same,Solubility 25° C.,"[2]; solvent 1,4-dioxane, input amorphous D-LSD oxalate",9200 µg/mL
same,Solubility 25° C.,"[2]; solvent Chlorobenzene, input amorphous D-LSD oxalate",2300 µg/mL
same,Solubility 25° C.,"[2]; solvent EtOAc, input amorphous D-LSD oxalate",3420 µg/mL
same,Solubility 25° C.,"[2]; solvent IP AC, input amorphous D-LSD oxalate",4630 µg/mL
same,Solubility 25° C.,"[2]; solvent MEK, input amorphous D-LSD oxalate",2610 µg/mL
same,Solubility 25° C.,"[2]; solvent MIBK, input amorphous D-LSD oxalate",1600 µg/mL
same,Solubility 25° C.,"[2]; solvent MeCN, input amorphous D-LSD oxalate",5490 µg/mL
same,Solubility 25° C.,"[2]; solvent Me—THF, input amorphous D-LSD oxalate",6140 µg/mL
same,Solubility 25° C.,"[2]; solvent THF:water (95:5), input amorphous D-LSD oxalate",8670 µg/mL
same,Solubility 25° C.,"[2]; solvent nitromethane, input amorphous D-LSD oxalate",6490 µg/mL
"CCN(CC)C(=O)[C@@H]1C=C2c3cccc4[nH]cc(c34)C[C@H]2N(C)C1.O=P(O)(O)O [D-LSD phosphate Pattern C, D-LSD phosphoric acid salt Pattern C]",XRPD of Output,[1],phosphate Pattern C
same,Nature of solid,[1],solid
same,change in form after stress,[1],did not show a change in form
"CCN(CC)C(=O)[C@@H]1C=C2c3cccc4[nH]cc(c34)C[C@H]2N(C)C1.O=S(=O)(O)O [D-LSD Sulfate Amorphous Salt, D-LSD sulfate amorphous salt]",solubility,"[2]; EtOH, at 25° C., sulfate salt",> 100000 µg/mL
same,solubility,"[2]; IPA/water (95:5), at 40° C., sulfate salt",> 100000 µg/mL
same,solubility,"[2]; MeOH, at 25° C., sulfate salt",> 200000 µg/mL
same,solubility,"[2]; iPrOAc/water (98:2), at 40° C., sulfate salt",> 100000 µg/mL
